From ChEMBL document CHEMBL1155440, “1-(5-carboxyindol-1-yl)propan-2-one inhibitors of human cytosolic phospholipase A(2)alpha with reduced lipophilicity: synthesis, biological activity, metabolic stability, solubility, bioavailability, and topical in vivo activity” (J Med Chem, 2010)
In brackets after ≈: the same amount, converted by molar mass. Activity calls are given as the source filed them. The calls are words filed in the database; no cut-off is given here.

Tests used:
[1] = Inhibition of human platelet cPLA2alpha assessed as inhibition of arachidonic acid production after 60 mins by UV-reverse phase HPLC analysis; conditions: 1 h
[2] = Thermodynamic solubility in sodium phosphate buffer of pH 7.4 by UV-reverse phase HPLC analysis; format: physicochemical
[3] = Partition coefficient, log P at 5 mM by reverse phase HPLC analysis; format: physicochemical; conditions: octanol/water
[4] = Metabolic stability in rat liver microsomes assessed as compound remaining after 30 mins by HPLC/MS analysis; format: ADME, Microsome; conditions: read-out: Stability
[5] = molecular target: T1, 85/88 kDa calcium-independent phospholipase A2 (Rattus norvegicus) (UniProt P97570); assay: Inhibition of Sprague-Dawley rat brain iPLA2 assessed as inhibition of substrate cleavage at 10 uM after 60 mins by HPLC analysis
T1 sequence (whole entry): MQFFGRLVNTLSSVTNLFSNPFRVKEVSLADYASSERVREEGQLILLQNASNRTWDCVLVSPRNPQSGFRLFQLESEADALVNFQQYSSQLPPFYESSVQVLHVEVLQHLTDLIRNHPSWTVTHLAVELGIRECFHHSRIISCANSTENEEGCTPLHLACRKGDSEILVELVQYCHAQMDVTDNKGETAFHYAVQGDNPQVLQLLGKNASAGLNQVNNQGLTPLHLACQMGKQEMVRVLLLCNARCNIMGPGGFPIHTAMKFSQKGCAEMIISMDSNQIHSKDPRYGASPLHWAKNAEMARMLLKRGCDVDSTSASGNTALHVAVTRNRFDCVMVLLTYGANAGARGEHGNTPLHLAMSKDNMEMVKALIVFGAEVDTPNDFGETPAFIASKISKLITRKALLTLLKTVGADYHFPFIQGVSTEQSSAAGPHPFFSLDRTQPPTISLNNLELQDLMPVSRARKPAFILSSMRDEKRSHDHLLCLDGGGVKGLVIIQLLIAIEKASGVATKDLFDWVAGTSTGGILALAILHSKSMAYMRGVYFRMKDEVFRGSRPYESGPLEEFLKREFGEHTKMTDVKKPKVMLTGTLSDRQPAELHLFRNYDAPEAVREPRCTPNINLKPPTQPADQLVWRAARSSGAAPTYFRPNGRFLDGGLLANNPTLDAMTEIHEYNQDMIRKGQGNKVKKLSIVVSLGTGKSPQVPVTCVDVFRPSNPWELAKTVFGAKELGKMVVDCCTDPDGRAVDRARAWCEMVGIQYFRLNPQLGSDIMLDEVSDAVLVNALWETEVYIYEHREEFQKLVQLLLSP

[6] = species on record: Homo sapiens; assay: Inhibition of human platelet cPLA2alpha assessed as inhibition of arachidonic acid production at 1 uM after 60 mins by UV-reverse phase HPLC analysis
[7] = molecular target: Phospholipase A2, major isoenzyme (Sus scrofa) (UniProt P00592); assay: Inhibition of pig pancreas group 1B sPLA2 assessed as inhibition of POPG cleavage at 10 uM after 30 mins by HPLC analysis
[8] = Inhibition of cPLA2alpha
[9] = species on record: Homo sapiens; assay: Inhibition of human platelet cPLA2alpha assessed as inhibition of arachidonic acid production at 33 nM after 60 mins by UV-reverse phase HPLC analysis

Sequence of Phospholipase A2, major isoenzyme (Sus scrofa) (P00592 23-146 limits assumed): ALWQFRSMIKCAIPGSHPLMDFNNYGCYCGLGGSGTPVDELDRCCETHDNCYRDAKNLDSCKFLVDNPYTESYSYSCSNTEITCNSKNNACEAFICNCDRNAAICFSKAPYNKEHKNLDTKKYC

| IC50 [1] | solubility thermodynamic [2] | logP at 5000 µM [3] | remaining at 0.5 h [4] | inhibition [5] | inhibition [6] | inhibition [7] | IC50 [8] | inhibition [9] | SMILES |
| --- | --- | --- | --- | --- | --- | --- | --- | --- | --- |
| 54 nM | 18 µg/mL (≈ 45.1 µM) | 3.3 | 7% |  |  |  |  |  | O=C(COc1ccc(Cc2ccccc2)cc1)Cn1ccc2cc(C(=O)O)ccc21 |
| 250 nM | < 3 µg/mL | 2.3 | 15% |  |  |  |  |  | NC(=O)c1ccc2c(ccn2CC(=O)COc2cccc(-c3ccccc3)c2)c1 |
| 41 nM | < 3 µg/mL | 3.2 | 22% |  |  |  |  |  | O=C(COc1ccc(-c2cccc(F)c2)cc1)Cn1ccc2cc(C(=O)O)ccc21 |
| 90 nM | < 3 µg/mL | 3 | 2% |  |  |  |  |  | COc1ccc(-c2ccc(OCC(=O)Cn3ccc4cc(C(=O)O)ccc43)cc2)cc1 |
| 37 nM | < 3 µg/mL | 3.2 | 14% |  |  |  |  |  | O=C(COc1ccc(-c2ccc(F)cc2)cc1)Cn1ccc2cc(C(=O)O)ccc21 |
| 19 nM | < 3 µg/mL | 3.8 | 31% |  |  |  |  |  | O=C(COc1ccc(-c2cccc(Cl)c2)cc1)Cn1ccc2cc(C(=O)O)ccc21 |
| 40 nM | < 3 µg/mL | 3.7 | 22% |  |  |  |  |  | Cc1ccc(-c2ccc(OCC(=O)Cn3ccc4cc(C(=O)O)ccc43)cc2)cc1 |
| > 1000 nM | < 3 µg/mL |  | 33% |  | 16% |  |  |  | Cc1cc(-c2ccccc2)ccc1OCC(=O)Cn1ccc2cc(C(=O)O)ccc21 |
| 230 nM | 5 µg/mL (≈ 12.4 µM) | 3.3 | 16% |  |  |  |  |  | O=C(COc1ccc(-c2ccccc2)cc1F)Cn1ccc2cc(C(=O)O)ccc21 |
| 47 nM | 25 µg/mL (≈ 58.5 µM) | 4.1 | 0% |  |  |  |  |  | CC(C)(c1ccccc1)c1ccc(OCC(=O)Cn2ccc3cc(C(=O)O)ccc32)cc1 |
| 35 nM | < 3 µg/mL | 4.7 | 40% |  |  |  |  |  | CC(C)c1ccc(-c2ccc(OCC(=O)Cn3ccc4cc(C(=O)O)ccc43)cc2)cc1 |
| 150 nM | < 3 µg/mL | 2.4 | 33% |  |  |  |  |  | NC(=O)c1ccc2c(ccn2CC(=O)COc2ccc(-c3ccccc3)cc2)c1 |
| 64 nM | 5 µg/mL (≈ 13 µM) | 3.2 | 7% |  |  |  |  |  | O=C(COc1ccc(-c2ccccc2)cc1)Cn1ccc2cc(C(=O)O)ccc21 |
| 36 nM | 43 µg/mL (≈ 107 µM) | 3.1 | 3% |  |  |  |  |  | O=C(COc1ccc(Oc2ccccc2)cc1)Cn1ccc2cc(C(=O)O)ccc21 |
| > 1000 nM | < 3 µg/mL | 3.7 | 61% |  | 29% |  |  |  | O=C(COc1ccc(-c2ccccc2)cc1Cl)Cn1ccc2cc(C(=O)O)ccc21 |
|  | 21 µg/mL (≈ 54.5 µM) | 3.1 | 81% |  | inactive |  |  |  | O=C(COc1ccccc1-c1ccccc1)Cn1ccc2cc(C(=O)O)ccc21 |
|  | 6 µg/mL (≈ 14.4 µM) | 2.9 | 72% |  | inactive |  |  |  | COc1cc(-c2ccccc2)ccc1OCC(=O)Cn1ccc2cc(C(=O)O)ccc21 |
| 27 nM | < 3 µg/mL | 3.9 | 46% |  |  |  |  |  | O=C(COc1ccc(-c2ccc(Cl)cc2)cc1)Cn1ccc2cc(C(=O)O)ccc21 |
| 210 nM | 16 µg/mL (≈ 41.5 µM) | 3.1 | 13% |  |  |  |  |  | O=C(COc1cccc(-c2ccccc2)c1)Cn1ccc2cc(C(=O)O)ccc21 |

Second part, the molecule before the results:

| SMILES | IC50 [1] | solubility thermodynamic [2] | logP at 5000 µM [3] | remaining at 0.5 h [4] | inhibition [5] | inhibition [6] | inhibition [7] | IC50 [8] | inhibition [9] |
| --- | --- | --- | --- | --- | --- | --- | --- | --- | --- |
| CC(=O)c1cn(CC(=O)COc2ccc(OCCOc3ccccc3)cc2)c2ccc(C(=O)O)cc12 | 41 nM | 34 µg/mL (≈ 69.7 µM) | 2.6 | 68% |  |  |  |  |  |
| CCCCCCCCCOc1ccc(OCC(=O)Cn2ccc3cc(C(=O)O)ccc32)cc1 | 23 nM | < 3 µg/mL | 6.5 | 74% |  |  |  |  |  |
| O=C1O/C(=C/Br)CCC1c1cccc2ccccc12 (stereo not drawn) |  |  |  |  | 50% |  |  |  |  |
| COc1ccc2c(c1)c(CC(=O)O)c(C)n2C(=O)c1ccc(Cl)cc1 [INDOMETHACIN] |  | 246 µg/mL (≈ 688 µM) | 2.9 |  |  |  |  |  |  |
| CCCCCCOc1ccc(OCC(=O)Cn2ccc3cc(C(=O)O)ccc32)cc1 | 34 nM | 7 µg/mL (≈ 17.1 µM) | 4.6 | 38% |  |  |  |  |  |
| O=C(COc1ccc(OCCOc2ccccc2)cc1)Cn1ccc2cc(C(=O)O)ccc21 | 110 nM | 31 µg/mL (≈ 69.6 µM) | 3.1 | 21% |  |  |  |  |  |
| CC(=O)c1cn(CC(=O)COc2ccc(Oc3ccc(C(F)(F)F)cc3)cc2)c2ccc(C(=O)O)cc12 | 10 nM | < 3 µg/mL | 3.5 | 73% |  |  |  |  |  |
| O=C(COc1ccc(Oc2ccc(C(F)(F)F)cc2)cc1)Cn1ccc2cc(C(=O)O)ccc21 | 19 nM | < 3 µg/mL | 4 | 57% |  |  |  |  |  |
| O=C(O)CC[C@@H](Cc1ccc(OCc2ccccc2)cc1)NC(=O)CCCCCCc1ccccc1 |  |  |  |  |  |  | 89% |  |  |
| NC(=O)c1ccc2c(ccn2CC(=O)COc2ccccc2-c2ccccc2)c1 |  | < 3 µg/mL | 2.3 | 20% |  | inactive |  |  |  |
| CCCCCCCCc1ccc(OCC(=O)Cn2ccc3cc(C(N)=O)ccc32)cc1 | 120 nM | < 3 µg/mL | 5.5 | 54% |  |  |  | 35 nM |  |
| CCCCCCCCOc1ccc(OCC(=O)Cn2ccc3cc(C(=O)O)ccc32)cc1 | 26 nM | < 3 µg/mL | 5.9 | 79% |  |  |  |  |  |
| CC(=O)c1cn(CC(=O)COc2ccc(Oc3ccccc3)cc2)c2ccc(C(=O)O)cc12 | 12 nM | 111 µg/mL (≈ 250 µM) | 2.6 | 41% |  |  |  |  |  |
| CCCCCCCCc1ccc(OCC(=O)Cn2ccc3cc(C(=O)O)ccc32)cc1 |  |  | 6.3 |  |  |  |  | 120 nM | 47% |
| CCCCCCCCCCOc1ccc(OCC(=O)Cn2ccc3cc(C(=O)O)ccc32)cc1 | 20 nM | < 3 µg/mL | 7.1 | 67% |  |  |  |  |  |
| CCCCCCCOc1ccc(OCC(=O)Cn2ccc3cc(C(=O)O)ccc32)cc1 | 32 nM | < 3 µg/mL | 5.2 | 57% |  |  |  |  |  |
